In PubChem BioAssay AID743254 (The Scripps Research Institute Molecular Screening Center, 2014):
Activity calls are given as the source filed them.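 How the source made its calls: active means half-inhibition concentration IC50 of 10 µM or lower; inactive means IC50 above 10 µM.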

target: Disintegrin and metalloproteinase domain-containing protein 10 (Homo sapiens) (UniProt O14672); assay: potency of ADAM10 substrate cleavage blockers – biochemical, QFRET, dose response (AID 743254); settings: ADAM10 QFRET peptide cleavage, EDANS fluorescence, 3 h
Sequence (O14672 214-748 limits assumed): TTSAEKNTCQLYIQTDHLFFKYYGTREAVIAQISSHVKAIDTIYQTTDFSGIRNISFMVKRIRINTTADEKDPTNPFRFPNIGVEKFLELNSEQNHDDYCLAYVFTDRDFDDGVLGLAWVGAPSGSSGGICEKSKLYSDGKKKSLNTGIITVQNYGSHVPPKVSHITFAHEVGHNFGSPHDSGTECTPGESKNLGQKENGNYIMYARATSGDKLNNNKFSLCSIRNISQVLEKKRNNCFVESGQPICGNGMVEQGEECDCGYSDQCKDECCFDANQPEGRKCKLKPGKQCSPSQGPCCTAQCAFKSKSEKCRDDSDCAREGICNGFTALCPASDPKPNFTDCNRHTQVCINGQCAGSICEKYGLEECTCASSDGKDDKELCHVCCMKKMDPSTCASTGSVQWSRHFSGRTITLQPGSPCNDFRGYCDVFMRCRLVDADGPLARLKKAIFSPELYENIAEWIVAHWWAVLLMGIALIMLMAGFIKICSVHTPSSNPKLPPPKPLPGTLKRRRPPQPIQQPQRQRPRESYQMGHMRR

| IC50 | SMILES |
| --- | --- |
| inactive | CCCN(CC(=O)Nc1cc(Cl)cc(Cl)c1)CC(=O)Nc1ccc(F)c(F)c1F |
| > 69.5 µM (inactive) | Oc1ccc(Cl)cc1-c1cc(-c2cccc(Br)c2)n[nH]1 |
| > 69.5 µM (inactive) | O=C1CC(N(CCc2ccccc2)C(=S)Nc2cc(Cl)ccc2Cl)C(=O)N1c1c(Cl)cccc1Cl (stereo not given) |
| > 69.5 µM (inactive) | N#Cc1c(Cl)nc(N/N=C/c2ccccc2)c(Cl)c1Cl |
| > 69.5 µM (inactive) | O=C(Nc1cccc(S(=O)(=O)Nc2ccc(Cl)cc2)c1)c1cc2c(s1)CCCC2 |
| > 69.5 µM (inactive) | Fc1c(F)c(C(F)(F)F)c(F)c(F)c1N/N=C\c1cccs1 |
| inactive | O=C(NNc1ccccc1Br)C(O)(c1cccc(C(F)(F)F)c1)c1cccc(C(F)(F)F)c1 |
| 7.45 µM | C=C(C)COc1ccc(-c2[nH]ncc2Oc2cccc(OC)c2)c(O)c1 |
| > 69.5 µM (inactive) | COc1ccc(-c2ccc(-c3noc(-c4cccc(OC)c4)n3)c(OC)n2)cc1 |
| inactive | Cc1cc(C)c(CSc2ncc(-c3ccc([N+](=O)[O-])cc3)[nH]2)c(C)c1 |
| > 69.5 µM (inactive) | Cc1cccc(C)c1OCC(O)Cn1c2ccccc2c2ccccc21 (stereo not given) |
| inactive | Cc1ccc(NS(=O)(=O)c2ccc(Cl)c(NC(=S)NC(=O)C3CCCCC3)c2)cc1Cl |
| inactive | O=[N+]([O-])c1ccc(O)c(/C=N/Nc2ccccn2)c1 |
| inactive | CC(=O)c1ccc(N2CCC(c3cc(-c4ccc(Cl)cc4Cl)n[nH]3)CC2)c([N+](=O)[O-])c1 |
| inactive | O=C(OCc1csc(Nc2ccccc2)n1)c1ccc(Cl)cc1 |
| inactive | O=C1OCCN1C(=O)[C@H]1[C@H](c2ccc([N+](=O)[O-])cc2)C(c2ccc(F)cc2)=NN1c1ccc(Br)cc1 |
| inactive | O=[N+]([O-])c1ccc(S(=O)(=O)Nc2ccc(-c3csc(-c4ccccc4)n3)cc2)cc1 |
| inactive | O=[N+]([O-])c1cc(S(=O)(=O)Nc2ccccc2)ccc1N1CCN(c2ccccc2)CC1 |

| IC50 | SMILES |
| --- | --- |
| > 69.5 µM (inactive) | O=C(Nc1ccc(N2CCCC2)c(S(=O)(=O)Nc2cccc(C(F)(F)F)c2)c1)c1cccs1 |
| > 69.5 µM (inactive) | COc1cc(/C=N/O)cc(Br)c1OCc1ccc(Cl)cc1 |
| 5.44 µM | C=C(C)COc1ccc(-c2[nH]ncc2Oc2ccc(OC)cc2)c(O)c1 |
| inactive | COc1ccc(CCN2C(=O)c3[nH]nc(-c4ccccc4O)c3C2c2cccc(Cl)c2)cc1 (stereo not given) |
| > 69.5 µM (inactive) | O=C(NNC(=O)c1cc(-c2ccc(Cl)cc2)nc2ccccc12)c1csc(N2CCOCC2)n1 |
| > 69.5 µM (inactive) | COC(=O)c1ccc(N2CCC(c3cc(-c4ccc(OC)cc4)n[nH]3)CC2)c([N+](=O)[O-])c1 |
| 7.23 µM | COc1ccc(C(Nc2cc(C)ccn2)c2ccc3ccc(C)nc3c2O)cc1 (stereo not given) |
| 8.8 µM | O=[N+]([O-])c1cccnc1N1CCC(c2cc(-c3ccc(Cl)cc3)n[nH]2)CC1 |
| 7.43 µM | O=C(Nc1ccc(OCC(F)(F)C(F)F)c(C(F)(F)F)c1)c1ccc(Cl)cc1 |
| inactive | CCOC(=O)c1c(CSc2ccc(C)cc2)oc2ccc(O)cc12 |
| > 69.5 µM (inactive) | O=C(NNC(=O)c1cc(-c2ccccc2)nc2ccccc12)Nc1cccc(Cl)c1 |
| > 69.5 µM (inactive) | C(=C\c1ccccc1)/C=N/Nc1nc2ccccc2s1 |
| > 69.5 µM (inactive) | COc1ccc(S(=O)(=O)Nc2cc3c4c(oc3c3ccccc23)CC(C)(C)CC4=O)cc1 |
| > 69.5 µM (inactive) | O=[N+]([O-])c1ccc(-c2nc(-c3cccs3)c(-c3cccs3)[nH]2)cc1 |
| inactive | O=C1OCCN1C(=O)[C@H]1[C@H](c2ccc([N+](=O)[O-])cc2)C(c2cccc(Cl)c2)=NN1c1ccc(Br)cc1 |
| 9.61 µM | COc1ccc(-c2cn[nH]c2-c2ccc(OCc3ccccc3)cc2O)cc1 |
| inactive | CCc1ccc(NC(=O)c2ccc(F)c(S(=O)(=O)NCC3COc4ccccc4O3)c2)cc1 (stereo not given) |
